One series concerns the target E. histolytica CS1 (Entamoeba histolytica, UniProt O15570). Kind of series: CS inhibitory activity, recombinant CS1. Format: biochemical. The method, then: Pencolide (5.5 mg) was dissolved in 1 ml of 0.25 M L-cysteine aqueous solution (L-cysteine HCl salt in H2O) and left at room temperature for overnight. The reaction mixture was purified by Seppak ODS (Waters co., Massachusetts, USA) and the cysteine adducts were eluted with 30%MeCN-70%H2O containing 0.1%TFA. The obtained fraction was further purified by preparative HPLC (column, Senshupak Pegasil ODS SP100, 20 φ × 250 mm, Senshu Scientific Co. Ltd.; solvent, 0.1%TFA-MeCN-H2O gradient system, 10–50% MeCN per 0–30 min; flow rate, 7.0 ml/min; detection, UV at 210 nm). […] The methanol solution of the obtained adducts was used for measurement of the CS1 inhibitory activity.

A further series concerns the target E. histolytica CS3 (Entamoeba histolytica, UniProt Q401L7). Kind of series: CS inhibitory activity, recombinant CS3. Format: biochemical.
Series [1] concerns MRC-5 cells. Kind of series: Cytotoxicity against MRC-5 cells (WST-8). Format: cell-based, Human. To be noted: MRC-5 relative to E. histolytica in Cys (–). The method, then: (§1) Human fibroblast cell line, MRC-5, was used for cytotoxicity evaluation. MRC-5 cells were plated on 96-well flat bottom plates at a density of 1.5 × 10^4 cells/well in 100 μl of MEM medium each well (Life Technologies) containing 10% fetal bovine serum (Hana-nesco Bio, Tokyo, Japan) and 1% penicillin-streptomycin (Life Technologies) and incubated at 37°C with 5% CO2 for 2 days. Test compounds in 5 μl of 50% DMSO and 50% H2O and 100 μl of MEM medium were mixed and added to each well. After cultivation at 37°C with 5% CO2 for 2 days, cell density and morphological changes were observed under a microscope. After observation, 10 μl of WST-8 solution (Dojindo) was added to the cells and the plate was incubated at 37°C with 5% CO2 for 2 h. Then, absorbance at 450 nm was measured as above. Cytotoxicity against MRC-5 cells was measured in triplicate. ED50 values were calculated as previously described (Arita-Morioka et al., [2015]).
(In general: Tetrazolium dyes change colour on reduction, which living cells bring about.)

Series [2] can be described thus: Cytotoxicity against MRC-5 cells (WST-8). The settings on record: human, MRC-5 fibroblast cells; 2 days. Format: cell-based, Human. The method, then: as §1
The format of series [3] is physicochemical. The settings on record: 9 mM L-cysteine, 37°C, 2 days. The method, then: After mixing well with plate mixer for 3 min, the plate was incubated at 37°C axenically with Anaeropak (Mitsubishi Chemical, Tokyo, Japan) for 2 days. The reaction mixtures were evaluated by HPLC analysis (column, Senshupak Pegasil ODS SP100, 4.6 φ × 250 mm, Senshu Scientific Co. Ltd., Japan; solvent, MeCN-H2O gradient system, 10–90% MeCN per 0–30 min; flow rate, 1.0 ml/min; detection, UV at 210 nm) and LC-ESI-MS analysis (column, Capcellcore C18, 2.1 φ × 50 mm, Osaka soda, Japan; solvent, MeCN-H2O-0.1% HCO2H gradient system, 5–100% MeCN per 0–8 min, 100%MeCN per 8–10 min; flow rate, 0.4 ml/min; ESI-MS data was obtained by JEOL JMS-T100LP, JEOL, Japan).

Series [4] deals with E. histolytica trophozoites. Nature of the series: In vitro antiamebic activity (WST-1), L-cysteine-deprived or L-cysteine-supplemented BI-S-33 medium. Format: cell-based, Entamoeba histolytica. To be noted: for IC50: Entamoeba histolytica; for Anti-amebic activity Selectivity Cys(+)/Cys(–): ED50 Cys(+)/ED50 Cys(–), cysteine dependence index; for Anti-amebic activity ED50 Cys (+): L-cysteine (9 mM) supplemented BI-S-33 medium; for Anti-amebic activity ED50 Cys (+) / Anti-amebic activity ED50 Cys (–): 48 hrs; for Anti-amebic activity ED50 Cys (–): L-cysteine-deprived BI-S-33 medium. How it is done: Trophozoites were harvested in a logarithmic growth phase 3 or 4 days after inoculation of 1/30–1/12 volume of the seed culture. After the cultures were chilled on ice for 5 min, trophozoites were collected by centrifugation at 500 × g for 10 min at 4°C. The trophozoites were resuspended in BI-S-33 medium containing 1% (v/v) penicillin/streptomycin (Life Technologies, Grand Islands, NY, U.S.A.), with a final concentration of 5 × 10^4 cells/ml. […] The plates were incubated under anaerobic conditions with Anaeropak for 48 hrs. After incubation, the medium was removed and 90 μl of pre-warmed Opti-MEM I (Life Technologies) and 10 μl of WST-1 solution (Dojindo, Kumamoto, Japan) were added to each well. Optical absorbance at 450 nm was measured on a photospectrometer (SH-9000Lab, Corona Electric, Ibaraki, Japan). Metronidazole (Sigma-Aldrich, MO, USA) was used as positive control. Antiamebic assays were done in triplicate. […] The cysteine dependence of the antiamebic activities was calculated as ED 50Cys(+) /ED 50Cys(-) and expressed as “cysteine dependence index.”
Approximately 2 μl of the compound solution (1 mg/ml, in DMSO) of the Kitasato Natural Products Library or 10 μl of EtOH extracts of microbial culture broth extracts was added to each well of E. histolytica trophozoite-seeded 96-well microtiter plates (final concentrations, 10 μg/ml). Compounds showing more than 80% growth inhibition and having no cytotoxicity against MRC-5 cells were selected for further evaluation.

Series [5] relates to E. histolytica trophozoites. The series is described as above. Format: cell-based, Entamoeba histolytica. To be noted: Cys (–) medium, 2.5 mM pencolide.
The test system of series [6] is E. histolytica trophozoites. On the set-up: method as in Mori et al., 2015. The settings on record: ref Mori et al., 2015, cited from earlier work.
Series [7] has as its system EhCSs. Kind of series: EhCS inhibition, isotype not separated (both CSs / EhCS). Format: biochemical, Entamoeba histolytica. To be noted: cytochalasans and cerulenin at 100 μg/ml. An excerpt:
Expression and purification of recombinant E. histolytica CS1 and CS3, and measurement of inhibitory activity against both enzymes were described previously (Mori et al., [2015]).

In series [8] the test system is MRC-5 cells. On the set-up: method as in Mori et al., 2015. To be noted: strong cytotoxicity, times higher, ref Mori et al., 2015; cited from earlier work.
Series [9] deals with EhCSs. Also on record: method as in Mori et al., 2015. To be noted: previous enzymatic screening, ref Mori et al., 2015; read-out: IC50 value against CSs; cited from earlier work.
[10] abbreviates: read-out: CS inhibitory activity IC50 CS1 (converted).
The mark [11] stands for this setting: read-out: CS inhibitory activity IC50 CS3 (converted).

Where two headings read alike, the source gives them in different places.

E. histolytica CS3, sequence (Q401L7 entry or part of it): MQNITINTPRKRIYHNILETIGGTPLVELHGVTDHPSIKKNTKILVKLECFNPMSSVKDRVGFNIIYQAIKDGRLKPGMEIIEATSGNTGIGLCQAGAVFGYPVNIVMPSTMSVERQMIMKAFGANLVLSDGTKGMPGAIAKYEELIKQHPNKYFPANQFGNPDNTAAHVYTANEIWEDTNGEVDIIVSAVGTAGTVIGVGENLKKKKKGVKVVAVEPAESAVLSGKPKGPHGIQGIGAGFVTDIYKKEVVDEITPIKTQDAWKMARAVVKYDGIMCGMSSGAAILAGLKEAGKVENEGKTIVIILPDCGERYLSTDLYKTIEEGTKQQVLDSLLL
E. histolytica CS1, sequence (O15570 entry or part of it): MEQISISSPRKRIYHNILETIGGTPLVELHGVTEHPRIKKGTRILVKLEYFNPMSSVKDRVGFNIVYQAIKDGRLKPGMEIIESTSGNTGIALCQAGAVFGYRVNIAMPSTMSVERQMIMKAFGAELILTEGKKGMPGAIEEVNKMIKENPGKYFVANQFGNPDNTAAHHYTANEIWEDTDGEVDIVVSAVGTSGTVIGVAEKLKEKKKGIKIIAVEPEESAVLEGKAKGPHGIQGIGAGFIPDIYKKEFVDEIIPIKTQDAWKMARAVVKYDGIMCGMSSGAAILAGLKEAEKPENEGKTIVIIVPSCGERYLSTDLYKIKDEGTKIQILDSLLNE

As a reminder, the IC50 is the concentration that gives 50% inhibition. In the case of `C/C=C(\C(=O)O)N1C(=O)C=C(C)C1=O` [Pencolide], the IC50 at E. histolytica CS1 (setting [10]) was 233 ± 19 µM; on E. histolytica CS3 (setting [11]), 217 ± 25 µM; in [4] (Cys (+) medium, read-out: Cytotoxicity IC50 Against Entamoeba histolytica in Cys (+)), 2140 µM; in [4] (Cys (–) medium, read-out: Cytotoxicity IC50 Against Entamoeba histolytica in Cys (–)), 283 ± 44 µM. Further, the “Selectivity MRC-5/Cys (–) (selectivity index)” value in the series on MRC-5 cells [1] was found to be 6.7. Moreover, it took 1900 µM to reach half-maximal inhibition in [2] (IC50 at 2 days). Also, the “Stability in cysteine-supplemented water (HPLC)” value (“Stability” below) in [3] was “most of pencolide was changed to the cysteine adducts”. In addition, in series [4], the “Selectivity Cys (+)/Cys (–) (cysteine dependence index)” value was found to be 7.6. In addition, the “Cell morphology under a light microscope” value in series [5] was “apoptosis-like cell death”.
As for `CC(=O)c1c(C)c(/C(O)=C2\COc3cc(O)c(O)c(C(=O)O)c3C2=O)cc2c(=O)c3c(C(=O)O)c(O)c(O)cc3oc12` [xanthofulvin], the “Antiamebic activity in vitro” value in [6] is listed as “did not show the antiamebic activity”.
With `CCCCCCCCCc1cc(OC(=O)c2c(CCCCCCCCC)cc(O)cc2OC2OC(CO)C(O)C(O)C2O)cc(O)c1C(=O)O` (stereo not shown) [exophillic acid], the “Antiamebic activity in vitro” value in series [6] is reported as “did not show the antiamebic activity”.
As for `CCC[C@H]1O[C@H](CC(=O)O)CC2=C1C(=O)c1c(O)cccc1C2=O` [Deoxyfrenolicin], on E. histolytica CS1 (setting [10]), the half-inhibitory concentration (IC50) was 72.7 µM. The IC50 on E. histolytica CS3 (setting [11]) was 75.7 µM. For the same molecule, the “Inhibitory activity toward both CS1 and CS3 (in words)” value in the series with EhCSs [7] is “mild inhibition”. In [4], the “Anti-amebic activity Selectivity Cys(+)/Cys(–)” value was determined as 2, the “Anti-amebic activity ED50 Cys (+)” value is 3.9 µg/mL and the “Anti-amebic activity ED50 Cys (–)” value was 1.7 µg/mL.
Take `C/C=C/C/C=C/CCC(=O)[C@H]1O[C@H]1C(N)=O` [Cerulenin, reference compound]: the IC50 at E. histolytica CS1 was > 448 µM. In addition, on E. histolytica CS3, the 50% inhibitory concentration (IC50) was > 448 µM. The “Inhibitory activity toward both CS1 and CS3 (in words)” value with EhCSs [7] was “neither three cytochalasans nor cerulenin showed the inhibitory activity”. Besides, the “Stability” value in series [3] was “relatively stable”. Further, in series [4], the “Anti-amebic activity ED50 Cys (+)” value came to 8.2 µg/mL and the “Anti-amebic activity ED50 Cys (–)” value was 1.1 µg/mL.
For deacetylkinamycin C, the “Cytotoxicity against MRC-5 cells relative to antiamebic/CS activity” value in the series on MRC-5 cells [8] is > 10 times. Also, the “ED50 value against amebic trophozoites” value in [6] (previous study) is recorded as “ca. 20 μM”. In addition, in the series with EhCSs [9], the IC50 is ~20 µM.
Turning to `CC1=CC2C=C(C)C(C)C3C(CC(C)C)NC(=O)C23C(=O)C=CC(=O)C(O)CC1` (stereo not shown) [Aspochalasin B], at E. histolytica CS1, the IC50 is > 250 µM. In addition, at E. histolytica CS3, the half-inhibitory concentration (IC50) is > 250 µM. Further, in series [4], the “Anti-amebic activity Selectivity Cys(+)/Cys(–)” value was 3, the “Anti-amebic activity ED50 Cys (+)” value is 27 µg/mL and the “Anti-amebic activity ED50 Cys (–)” value was determined as 9.6 µg/mL.
With `CC1=CC(C)CC=CC2C3OC3(C)C(C)C3C(Cc4c[nH]c5ccccc45)NC(=O)C23C(=O)C=CC(=O)C1` (stereo not shown) [Prochaetoglobosin III], the half-inhibitory concentration (IC50) on E. histolytica CS1 is > 195 µM. Moreover, on E. histolytica CS3, the IC50 is > 195 µM. In addition, the “Stability” value in series [3] is reported as “totally lost”. Moreover, in series [4], the “Anti-amebic activity Selectivity Cys(+)/Cys(–)” value is given as 17, the “Anti-amebic activity ED50 Cys (+)” value is 44 µg/mL and the “Anti-amebic activity ED50 Cys (–)” value was found to be 2.6 µg/mL.
Turning to `C/C1=C\[C@@H](C)C/C=C/[C@H]2[C@@H]3O[C@]3(C)[C@@H](C)[C@H]3[C@H](Cc4c[nH]c5ccccc45)NC(=O)[C@]32C(=O)/C=C/C(=O)[C@@H]1O` [Chaetoglobosin A], the IC50 at E. histolytica CS1 is > 189 µM. For the same molecule, the IC50 at E. histolytica CS3 is > 189 µM. The “Stability” value in series [3] is given as “totally lost”. In [4], the “Anti-amebic activity Selectivity Cys(+)/Cys(–)” value is given as >50, the “Anti-amebic activity ED50 Cys (+)” value was >50 µg/mL and the “Anti-amebic activity ED50 Cys (–)” value stood at 1.0 µg/mL.

Values taken from paper PMC6290340, “Discovery of Antiamebic Compounds That Inhibit Cysteine Synthase From the Enteric Parasitic Protist Entamoeba histolytica by Screening of Microbial Secondary Metabolites” (Frontiers in Cellular and Infection Microbiology, 2018).
